In patent US8575163B2, “Pyrrolopyridinylpyrimidin-2-ylamine derivatives” (Merck Patent GmbH, priority 2009, dated 2013):

target: T1, PDK1 (Homo sapiens, UniProt O15530); experiment: Test for the inhibition of PDK1 (flashplate, 33P-ATP); assay type: biochemical; details: His6-PDK1 3.4 nM, 4 μM ATP, 30° C., 60 min
T1 construct: His6 (N)
T1 sequence (O15530 51-556 limits assumed): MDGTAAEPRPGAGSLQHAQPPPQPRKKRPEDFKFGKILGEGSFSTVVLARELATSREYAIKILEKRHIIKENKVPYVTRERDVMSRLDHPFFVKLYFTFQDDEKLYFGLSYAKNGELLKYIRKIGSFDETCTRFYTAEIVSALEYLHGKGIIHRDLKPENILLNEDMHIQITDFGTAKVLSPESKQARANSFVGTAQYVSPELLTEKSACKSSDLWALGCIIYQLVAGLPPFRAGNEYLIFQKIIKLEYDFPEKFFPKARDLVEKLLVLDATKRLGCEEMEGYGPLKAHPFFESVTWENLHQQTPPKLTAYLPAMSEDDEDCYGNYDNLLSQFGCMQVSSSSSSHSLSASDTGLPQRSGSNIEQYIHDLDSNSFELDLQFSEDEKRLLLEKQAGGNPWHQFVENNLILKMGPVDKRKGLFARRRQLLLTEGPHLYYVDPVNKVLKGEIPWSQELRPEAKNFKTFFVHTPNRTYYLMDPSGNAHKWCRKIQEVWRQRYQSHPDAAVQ
Protocol: The experimental batches are carried out in a flashplate system with 384 wells/microtitration plate.
In each case, the PDK1 sample His6-PDK1(1-50)(3.4 nM), the PDK1 substrate biotin-bA-bA-[…] (400 nM), 4 μM ATP (with 0.2 μCi of ^33 P-ATP/well) and the test substance in 50 μl of conventional experimental solution per well are incubated at 30° C. for 60 min. The test substances are employed in corresponding concentrations (if desired in a dilution series). The control is carried out without test substance. The reaction is stopped using standard methods and washed. The activity of the kinase is measured via the incorporated radioactivity in top count. In order to determine the non-specific kinase reaction (blank value), the experimental batches are carried out in the presence of 100 nM staurosporin.
The radioactivity (decompositions per minute) of the blank value (no use of test substance in the presence of staurosporin) is subtracted from all other radioactivity values. The controls (kinase activity without test substance) are set equal to 100 percent and all other radioactivity values (after subtracting the blank value) are expressed set in relation thereto (for example in % of the control).
[formula] IC50 values (50% inhibition) are determined with the aid of statistics programmes, such as, for example, RS1.

Row | IC50 | SMILES
1 | 130 nM | CCC(OCOC)(c1cc(-c2c[nH]c3ncc(-c4cnn(C)c4)cc23)nc(N)n1)c1cccc(Cl)c1F (stereo not drawn) [A30, 4-[1-(3-chloro-2-fluorophenyl)-1-methoxymethoxypropyl]-6-[5-(1-methyl-1H-pyrazol-4-yl)-1H-pyrrolo[2,3-b]pyridin-3-yl]pyrimidin-2-ylamine]
2 | 44 nM | Cn1cc(-c2cnc3[nH]cc(-c4cc(C(C)(O)c5ccc(CO)cc5)nc(N)n4)c3c2)cn1 (stereo not drawn) [A31, 1-{2-amino-6-[5-(1-methyl-1H-pyrazol-4-yl)-1H-pyrrolo[2,3-b]pyridin-3-yl]-pyrimidin-4-yl}-1-(4-hydroxymethylphenyl)ethanol]
3 | 25 nM | CCC(OCOC)(c1cc(-c2c[nH]c3ncc(-c4cnn(C)c4)cc23)nc(N)n1)c1ccncc1F (stereo not drawn) [A32, 4-[1-(3-fluoropyridin-4-yl)-1-methoxymethoxypropyl]-6-[5-(1-methyl-1H-pyrazol-4-yl)-1H-pyrrolo[2,3-b]pyridin-3-yl]pyrimidin-2-ylamine]
4 | 170 nM | CCC(OCOC)(c1ccncc1)c1cc(-c2c[nH]c3ncc(Br)cc23)nc(N)n1 (stereo not drawn) [A34, 4-(5-bromo-1H-pyrrolo[2,3-b]pyridin-3-yl)-6-(1-methoxymethoxy-1-pyridin-4-ylpropyl)pyrimidin-2-ylamine]
5 | 56 nM | CCCC(OCOC)(c1ccncc1)c1cc(-c2c[nH]c3ncc(-c4cnn(C)c4)cc23)nc(N)n1 (stereo not drawn) [A36, 4-(1-methoxymethoxy-1-pyridin-4-ylbutyl)-6-[5-(1-methyl-1H-pyrazol-4-yl)-1H-pyrrolo[2,3-b]pyridin-3-yl]pyrimidin-2-ylamine]
6 | 25 nM | CCC(OCOC)(c1cc(-c2c[nH]c3ncc(-c4cnn(C)c4)cc23)nc(N)n1)c1ccncc1F (stereo not drawn) [A37, 4-[1-(3-fluoropyridin-4-yl)-1-methoxymethoxypropyl]-6-[5-(1-methyl-1H-pyrazol-4-yl)-1H-pyrrolo[2,3-b]pyridin-3-yl]pyrimidin-2-ylamine]
7 | 140 nM | CC(=O)N1CCN(c2ccc(-c3cnc4[nH]cc(-c5cc(C(C)(O)c6ccccc6)nc(N)n5)c4c3)cn2)CC1 (stereo not drawn) [A38, 1-[4-(5-{3-[2-amino-6-(1-hydroxy-1-phenylethyl)pyrimidin-4-yl]-1H-pyrrolo-[2,3-b]pyridin-5-yl}pyridin-2-yl)piperazin-1-yl]ethanone]
8 | 91 nM | CC(O)(c1ccccc1)c1cc(-c2c[nH]c3ncc(-c4cnn(C(F)F)c4)cc23)nc(N)n1 (stereo not drawn) [A39, 1-{2-amino-6-[5-(1-difluoromethyl-1H-pyrazol-4-yl)-1H-pyrrolo[2,3-b]pyridin-3-yl]pyrimidin-4-yl}-1-phenylethanol]
9 | 54 nM | CC(O)(c1ccccc1)c1cc(-c2c[nH]c3ncc(-c4cnn(C(F)F)c4)cc23)nc(N)n1 (stereo not drawn) [A40, 1-{2-amino-6-[5-(1-difluoromethyl-1H-pyrazol-4-yl)-1H-pyrrolo[2,3-b]pyridin-3-yl]pyrimidin-4-yl}-1-phenylethanol]
10 | 55 nM | CC[C@@](O)(c1ccncc1)c1cc(-c2c[nH]c3ncc(-c4cnn(CC(=O)N5CCCCC5)c4)cc23)nc(N)n1 [A46, 2-(4-{3-[2-amino-6-((R)-1-hydroxy-1-pyridin-4-ylpropyl)pyrimidin-4-yl]-1H-pyrrolo[2,3-b]pyridin-5-yl}pyrazol-1-yl)-1-piperidin-1-ylethanone]
11 | 100 nM | CC(O)(c1ccccc1)c1cc(-c2c[nH]c3ncc(-c4cnn(Cc5cccs5)c4)cc23)nc(N)n1 (stereo not drawn) [A47, 1-{2-amino-6-[5-(1-thiophen-2-ylmethyl-1H-pyrazol-4-yl)-1H-pyrrolo[2,3-b]-pyridin-3-yl]pyrimidin-4-yl}-1-phenylethanol]
12 | 140 nM | CC(O)(c1ccccc1)c1cc(-c2c[nH]c3ncc(-c4cnn(S(C)(=O)=O)c4)cc23)nc(N)n1 (stereo not drawn) [A48, 1-{2-amino-6-[5-(1-methanesulfonyl-1H-pyrazol-4-yl)-1H-pyrrolo[2,3-b]pyridin-3-yl]pyrimidin-4-yl}-1-phenylethanol]
13 | 36 nM | CC(O)(c1cccc(F)c1)c1cc(-c2c[nH]c3ncc(-c4ccc(CO)cc4)cc23)nc(N)n1 (stereo not drawn) [A49, 1-{2-amino-6-[5-(4-hydroxymethylphenyl)-1H-pyrrolo[2,3-b]pyridin-3-yl]-pyrimidin-4-yl}-1-(3-fluorophenyl)ethanol]
14 | 650 nM | CC[C@@](OCOC)(c1cccc(F)c1)c1cc(-c2c[nH]c3ncc(Br)cc23)nc(N)n1 [A51, 4-(5-bromo-1H-pyrrolo[2,3-b]pyridin-3-yl)-6-[(R)-1-(3-fluorophenyl)-1-methoxymethoxypropyl]pyrimidin-2-ylamine]
15 | > 30000 nM | CC[C@](OCOC)(c1cccc(F)c1)c1cc(-c2c[nH]c3ncc(Br)cc23)nc(N)n1 [A52, 4-(5-bromo-1H-pyrrolo[2,3-b]pyridin-3-yl)-6-[(S)-1-(3-fluorophenyl)-1-methoxymethoxypropyl]pyrimidin-2-ylamine]
16 | 1500 nM | CCC(OCOC)(c1cccc(F)c1)c1cc(-c2c[nH]c3ncc(Br)cc23)nc(N)n1 (stereo not drawn) [A54, 4-(5-bromo-1H-pyrrolo[2,3-b]pyridin-3-yl)-6-[1-(3-fluorophenyl)-1-methoxymethoxypropyl]pyrimidin-2-ylamine]
17 | 75 nM | CC(O)(c1cccc(F)c1)c1cc(-c2c[nH]c3ncc(-c4ccc(CC#N)cc4)cc23)nc(N)n1 (stereo not drawn) [A55, [4-(3-{2-amino-6-[1-(3-fluorophenyl)-1-hydroxyethyl]pyrimidin-4-yl}-1H-pyrrolo[2,3-b]pyridin-5-yl)phenyl]acetonitrile]
18 | 150 nM | COCOC(C)(c1ccncc1)c1cc(-c2c[nH]c3ncc(Br)cc23)nc(N)n1 (stereo not drawn) [A56, 4-(5-bromo-1H-pyrrolo[2,3-b]pyridin-3-yl)-6-(1-methoxymethoxy-1-pyridin-4-ylethyl)pyrimidin-2-ylamine]
19 | 69 nM | CC(O)(c1cccc(F)c1)c1cc(-c2c[nH]c3ncc(-c4cnn(CC(=O)N5CCCCC5)c4)cc23)nc(N)n1 (stereo not drawn) [A59, 2-[4-(3-{2-amino-6-[1-(3-fluorophenyl)-1-hydroxyethyl]pyrimidin-4-yl}-1H-pyrrolo[2,3-b]pyridin-5-yl)pyrazol-1-yl]-1-piperidin-1-ylethanone]
20 | 24 nM | CC(O)(c1ccccc1)c1cc(-c2c[nH]c3ncc(-c4cnn(CCC(=O)NCCN)c4)cc23)nc(N)n1 (stereo not drawn) [A60, N-(2-aminoethyl)-3-(4-{3-[2-amino-6-(1-hydroxy-1-phenylethyl)pyrimidin-4-yl]-1H-pyrrolo[2,3-b]pyridin-5-yl}pyrazol-1-yl)propionamide]
21 | 2.1 nM | CC(O)(c1ccncc1)c1cc(-c2c[nH]c3ncc(-c4cnn(CC(=O)N5CCCCC5)c4)cc23)nc(N)n1 (stereo not drawn) [A61, 2-(4-{3-[2-amino-6-(1-hydroxy-1-pyridin-4-ylethyl)pyrimidin-4-yl]-1H-pyrrolo-[2,3-b]pyridin-5-yl}pyrazol-1-yl)-1-piperidin-1-ylethanone]
22 | 2.8 nM | CC(O)(c1ccncc1)c1cc(-c2c[nH]c3ncc(-c4cn[nH]c4)cc23)nc(N)n1 (stereo not drawn) [A62, 1-{2-amino-6-[5-(1H-pyrazol-4-yl)-1H-pyrrolo[2,3-b]pyridin-3-yl]pyrimidin-4-yl}-1-pyridin-4-ylethanol]
23 | 110 nM | CC(C)(C)OC(=O)NCCNC(=O)CCn1cc(-c2cnc3[nH]cc(-c4cc(C(C)(O)c5ccccc5)nc(N)n4)c3c2)cn1 (stereo not drawn) [A63, tert-butyl {2-[3-(4-{3-[2-amino-6-(1-hydroxy-1-phenylethyl)pyrimidin-4-yl]-1H-pyrrolo[2,3-b]pyridin-5-yl}pyrazol-1-yl)propionylamino]ethyl}carbamate]
24 | 3.3 nM | Cn1cc(-c2cnc3[nH]cc(-c4cc(C(C)(O)c5ccncc5)nc(N)n4)c3c2)cn1 (stereo not drawn) [A64, 1-{2-amino-6-[5-(1-methyl-1H-pyrazol-4-yl)-1H-pyrrolo[2,3-b]pyridin-3-yl]-pyrimidin-4-yl}-1-pyridin-4-ylethanol]
25 | 25 nM | CC(O)(c1ccccc1)c1cc(-c2c[nH]c3ncc(-c4cnn(CCC(=O)N5CCC(O)C5)c4)cc23)nc(N)n1 (stereo not drawn) [A65, 3-(4-{3-[2-amino-6-(1-hydroxy-1-phenylethyl)pyrimidin-4-yl]-1H-pyrrolo-[2,3-b]pyridin-5-yl}pyrazol-1-yl)-1-(3-hydroxypyrrolidin-1-yl)propan-1-one]
26 | 91 nM | CC(O)(c1ccccc1)c1cc(-c2c[nH]c3ncc(-c4cnn(CCC(=O)N5CCCCC5)c4)cc23)nc(N)n1 (stereo not drawn) [A66, 3-(4-{3-[2-amino-6-(1-hydroxy-1-phenylethyl)pyrimidin-4-yl]-1H-pyrrolo-[2,3-b]pyridin-5-yl}pyrazol-1-yl)-1-piperidin-1-ylpropan-1-one]
27 | 28 nM | CC(O)(c1ccccc1)c1cc(-c2c[nH]c3ncc(-c4cnn(CCC(=O)N5CCOCC5)c4)cc23)nc(N)n1 (stereo not drawn) [A67, 3-(4-{3-[2-amino-6-(1-hydroxy-1-phenylethyl)pyrimidin-4-yl]-1H-pyrrolo-[2,3-b]pyridin-5-yl}pyrazol-1-yl)-1-morpholin-4-ylpropan-1-one]
